MIC data for eleven molecules are collected here from ChEMBL document CHEMBL1158420, “Synthesis, spectral, crystal and antimicrobial studies of biologically potent oxime ethers of nitrogen, oxygen and sulfur heterocycles” (2009).

Values after ≈ are worked out from the molar mass of the structure shown.

One experiment relates to Escherichia coli. Kind of experiment: Antibacterial activity against Escherichia coli by twofold dilution method. In kind it is functional.
The next experiment has as its system Candida. Kind of experiment: Antifungal activity against Candida 51 by twofold dilution method. In kind it is functional.
The next experiment relates to Cryptococcus neoformans. The experiment can be described thus: Antifungal activity against Cryptococcus neoformans by twofold dilution method. In kind it is functional.
The test system of a further experiment is Candida albicans. Kind of experiment: Antifungal activity against Candida albicans by twofold dilution method. In kind it is functional.
The next experiment has as its system Rhizopus. The experiment can be described thus: Antifungal activity against Rhizopus sp. by twofold dilution method. The experiment is classed as functional.
Another experiment concerns Aspergillus niger. Kind of experiment: Antifungal activity against Aspergillus niger by twofold dilution method. In kind it is functional.
The test system of experiment [1] is Salmonella enterica subsp. enterica. The experiment can be described thus: Antibacterial activity against Salmonella typhi by twofold dilution method. The experiment is classed as functional, Salmonella enterica subsp. enterica serovar Typhi. The following applies: Salmonella enterica; read-out: MIC.
The next experiment deals with Aspergillus flavus. Kind of experiment: Antifungal activity against Aspergillus flavus by twofold dilution method. The experiment is classed as functional.
For the next experiment, the system named is Pseudomonas aeruginosa. The experiment can be described thus: Antibacterial activity against Pseudomonas aeruginosa by twofold dilution method. In kind it is functional.
Another experiment has as its system Staphylococcus aureus. The experiment can be described thus: Antibacterial activity against Staphylococcus aureus by twofold dilution method. The experiment is classed as functional.
The mark [2] stands for this setting: Escherichia coli, read-out: MIC.
The mark [3] stands for this setting: Cryptococcus neoformans, read-out: MIC.
[4] abbreviates: Candida albicans, read-out: MIC.
[5] abbreviates: Aspergillus niger, read-out: MIC.
Setting [6] is: Aspergillus flavus, read-out: MIC.
The mark [7] stands for this setting: Pseudomonas aeruginosa, read-out: MIC.
Where [8] appears, read: Staphylococcus aureus, read-out: MIC.

For `CCOC(=O)C1/C(=N/OCc2ccccc2)CC(c2ccccc2)NC1c1ccccc1` (configuration not stated), the MIC turned out to be 100 µg/mL (≈ 233 µM) in the experiment on Escherichia coli (setting [2]); 100 µg/mL (≈ 233 µM) in the experiment with Candida (Candida, 51, read-out: MIC); 100 µg/mL (≈ 233 µM) with Cryptococcus neoformans (setting [3]); 50 µg/mL (≈ 117 µM) in the experiment on Candida albicans (setting [4]); 200 µg/mL (≈ 467 µM) in the experiment with Rhizopus (Rhizopus, read-out: MIC); 200 µg/mL (≈ 467 µM) in the experiment on Aspergillus niger (setting [5]). The MIC in experiment [1] was 200 µg/mL (≈ 467 µM); with Aspergillus flavus (setting [6]), 100 µg/mL (≈ 233 µM); in the experiment on Pseudomonas aeruginosa (setting [7]) it was 50 µg/mL (≈ 117 µM); with Staphylococcus aureus (setting [8]), 200 µg/mL (≈ 467 µM).
As to `CC(C)C1/C(=N/OCc2ccccc2)CC(c2ccccc2)NC1c1ccccc1` (configuration not stated), the MIC with Escherichia coli (setting [2]) was 100 µg/mL (≈ 251 µM); in the experiment with Candida (Candida, 51, read-out: MIC) it was 200 µg/mL (≈ 502 µM); in the experiment with Cryptococcus neoformans (setting [3]), 100 µg/mL (≈ 251 µM); with Candida albicans (setting [4]) it was 50 µg/mL (≈ 125 µM); in the experiment on Rhizopus (Rhizopus, read-out: MIC) it was 50 µg/mL (≈ 125 µM); in the experiment with Aspergillus niger (setting [5]), 200 µg/mL (≈ 502 µM). Further, the minimal inhibitory concentration (MIC) in [1] was 100 µg/mL (≈ 251 µM); in the experiment on Aspergillus flavus (setting [6]), 200 µg/mL (≈ 502 µM); with Pseudomonas aeruginosa (setting [7]) it was 200 µg/mL (≈ 502 µM); with Staphylococcus aureus (setting [8]), over 200 µg/mL.
`COc1ccc([C@@H]2CC(=NOCc3ccccc3)C[C@@H](c3ccc(OC)cc3)S2)cc1`: the MIC stood at 50 µg/mL (≈ 115 µM) with Escherichia coli (setting [2]); 25 µg/mL (≈ 57.7 µM) with Candida (Candida, 51, read-out: MIC); 12.5 µg/mL (≈ 28.8 µM) with Cryptococcus neoformans (setting [3]); 25 µg/mL (≈ 57.7 µM) in the experiment on Candida albicans (setting [4]); 50 µg/mL (≈ 115 µM) in the experiment on Rhizopus (Rhizopus, read-out: MIC); 25 µg/mL (≈ 57.7 µM) in the experiment with Aspergillus niger (setting [5]). Further, the MIC in experiment [1] turned out to be 50 µg/mL (≈ 115 µM); in the experiment on Aspergillus flavus (setting [6]), 25 µg/mL (≈ 57.7 µM); in the experiment with Pseudomonas aeruginosa (setting [7]), 25 µg/mL (≈ 57.7 µM); in the experiment on Staphylococcus aureus (setting [8]), 50 µg/mL (≈ 115 µM).
For the molecule `COc1ccc(C2CC(=NOCc3ccccc3)CC(c3ccc(OC)cc3)N2)cc1` (configuration not stated), the MIC with Escherichia coli (setting [2]) was 100 µg/mL (≈ 240 µM); in the experiment with Candida (Candida, 51, read-out: MIC), 50 µg/mL (≈ 120 µM); in the experiment on Cryptococcus neoformans (setting [3]), 100 µg/mL (≈ 240 µM); in the experiment with Candida albicans (setting [4]), 100 µg/mL (≈ 240 µM); in the experiment with Rhizopus (Rhizopus, read-out: MIC), 50 µg/mL (≈ 120 µM); in the experiment with Aspergillus niger (setting [5]), 100 µg/mL (≈ 240 µM). In addition, the MIC in experiment [1] was determined as 50 µg/mL (≈ 120 µM); in the experiment with Aspergillus flavus (setting [6]) it was 100 µg/mL (≈ 240 µM); in the experiment on Pseudomonas aeruginosa (setting [7]), 50 µg/mL (≈ 120 µM); in the experiment with Staphylococcus aureus (setting [8]) it was 50 µg/mL (≈ 120 µM).
For `CC1/C(=N\OCc2ccccc2)CC(c2ccccc2)OC1c1ccccc1` (configuration not stated), the MIC with Escherichia coli (setting [2]) was determined as 100 µg/mL (≈ 269 µM); in the experiment with Candida (Candida, 51, read-out: MIC), 100 µg/mL (≈ 269 µM); in the experiment on Cryptococcus neoformans (setting [3]) it was 100 µg/mL (≈ 269 µM); in the experiment with Candida albicans (setting [4]), 100 µg/mL (≈ 269 µM); in the experiment with Rhizopus (Rhizopus, read-out: MIC) it was 200 µg/mL (≈ 538 µM); in the experiment with Aspergillus niger (setting [5]), 200 µg/mL (≈ 538 µM). In addition, the MIC in experiment [1] came to 200 µg/mL (≈ 538 µM); in the experiment on Aspergillus flavus (setting [6]) it was 200 µg/mL (≈ 538 µM); with Pseudomonas aeruginosa (setting [7]), 100 µg/mL (≈ 269 µM); in the experiment on Staphylococcus aureus (setting [8]), 100 µg/mL (≈ 269 µM).
With `Cc1ccc(C2CC(=NOCc3ccccc3)CC(c3ccc(C)cc3)N2)cc1` (configuration not stated), the MIC in the experiment on Escherichia coli (setting [2]) is 200 µg/mL (≈ 520 µM); in the experiment on Candida (Candida, 51, read-out: MIC), 100 µg/mL (≈ 260 µM); in the experiment with Cryptococcus neoformans (setting [3]) it was 200 µg/mL (≈ 520 µM); in the experiment with Candida albicans (setting [4]), 200 µg/mL (≈ 520 µM); in the experiment on Rhizopus (Rhizopus, read-out: MIC) it was 100 µg/mL (≈ 260 µM); in the experiment on Aspergillus niger (setting [5]) it was 200 µg/mL (≈ 520 µM). The MIC in experiment [1] is 100 µg/mL (≈ 260 µM); with Aspergillus flavus (setting [6]), 100 µg/mL (≈ 260 µM); with Pseudomonas aeruginosa (setting [7]) it was 50 µg/mL (≈ 130 µM); in the experiment with Staphylococcus aureus (setting [8]), 200 µg/mL (≈ 520 µM).
Take `c1ccc(CO/N=C2\C[C@@H](c3ccccc3)S[C@@H](c3ccccc3)C2)cc1` (relative stereo): the MIC in the experiment on Escherichia coli (setting [2]) is 200 µg/mL (≈ 535 µM); in the experiment with Candida (Candida, 51, read-out: MIC), 200 µg/mL (≈ 535 µM); with Cryptococcus neoformans (setting [3]), over 200 µg/mL; with Candida albicans (setting [4]), over 200 µg/mL; in the experiment with Rhizopus (Rhizopus, read-out: MIC) it was 200 µg/mL (≈ 535 µM); with Aspergillus niger (setting [5]) it was 100 µg/mL (≈ 268 µM). The MIC was 100 µg/mL (≈ 268 µM) in experiment [1], over 200 µg/mL in the experiment on Aspergillus flavus (setting [6]), 200 µg/mL (≈ 535 µM) with Pseudomonas aeruginosa (setting [7]) and over 200 µg/mL with Staphylococcus aureus (setting [8]).
For the molecule `c1ccc(CON=C2C[C@@H](c3ccccc3)S[C@H](c3ccccc3)C2)cc1` (relative stereo), the MIC in the experiment on Escherichia coli (setting [2]) was 200 µg/mL (≈ 535 µM); with Candida (Candida, 51, read-out: MIC), over 200 µg/mL; in the experiment with Cryptococcus neoformans (setting [3]) it was 200 µg/mL (≈ 535 µM); in the experiment on Candida albicans (setting [4]) it was 200 µg/mL (≈ 535 µM); with Rhizopus (Rhizopus, read-out: MIC) it was over 200 µg/mL; with Aspergillus niger (setting [5]), 200 µg/mL (≈ 535 µM). In addition, the minimum inhibitory concentration (MIC) was 200 µg/mL (≈ 535 µM) in experiment [1], 100 µg/mL (≈ 268 µM) in the experiment on Aspergillus flavus (setting [6]), over 200 µg/mL in the experiment with Pseudomonas aeruginosa (setting [7]) and over 200 µg/mL in the experiment with Staphylococcus aureus (setting [8]).
Consider `Cc1ccc(C2OC(c3ccc(C)cc3)C(C)C(=NOCc3ccccc3)C2C)cc1` (stereo in doubt; 7d2), for which the MIC in the experiment on Escherichia coli came out at 50 µg/mL (≈ 121 µM); against Candida, 6.25 µg/mL (≈ 15.1 µM); with Cryptococcus neoformans, 25 µg/mL (≈ 60.5 µM); with Candida albicans, 6.25 µg/mL (≈ 15.1 µM); in the experiment with Rhizopus, 25 µg/mL (≈ 60.5 µM); against Aspergillus niger, 50 µg/mL (≈ 121 µM). Also, the MIC against Aspergillus flavus, in the experiment with Pseudomonas aeruginosa and with Staphylococcus aureus was 25 µg/mL (≈ 60.5 µM) in each case.
As for `C[C@@H]1[C@H](O)[C@@H](C)/C=C/C=C/C=C/C=C/C=C/C=C/C=C/[C@H](O[C@@H]2O[C@H](C)[C@@H](O)[C@H](N)[C@@H]2O)C[C@@H]2O[C@](O)(C[C@@H](O)C[C@@H](O)[C@H](O)CC[C@@H](O)C[C@@H](O)CC(=O)O[C@H]1C)C[C@H](O)[C@H]2C(=O)O` [AMPHOTERICIN B], the MIC was determined as 25 µg/mL (≈ 27.1 µM) in the experiment with Candida (Candida, 51, read-out: MIC); 25 µg/mL (≈ 27.1 µM) with Cryptococcus neoformans (setting [3]); 25 µg/mL (≈ 27.1 µM) in the experiment on Candida albicans (setting [4]); 25 µg/mL (≈ 27.1 µM) in the experiment with Rhizopus (Rhizopus, read-out: MIC); 50 µg/mL (≈ 54.1 µM) in the experiment with Aspergillus niger (setting [5]); 50 µg/mL (≈ 54.1 µM) in the experiment on Aspergillus flavus (setting [6]).
Take `O=C(O)c1cn(C2CC2)c2cc(N3CCNCC3)c(F)cc2c1=O` [CIPROFLOXACIN]: the MIC with Escherichia coli (setting [2]) stood at 25 µg/mL (≈ 75.4 µM); in [1], 50 µg/mL (≈ 151 µM).
